Test results reported in PMC5097887 (European journal of medicinal chemistry, 2016).

Legend:
[1] = computed value; Table 1 footnote b; cited from earlier work
[2] = target: rat brain TSPO (Rattus norvegicus, UniProt P16257); assay type: binding; conditions: for LipE: pKi minus clogD; for binding affinity for TSPO (in words): locked amide rotamers of ligand 22
[3] = assay type: physicochemical; conditions: n-octanol/sodium phosphate buffer, pH 7.4

SMILES | Ki [2] [nM] | LipE [2] | logD [3] | binding affinity for TSPO (in words) [2] | cLogD [1]
CCC(C)N(C)C(=O)c1cc2ccccc2c(-c2ccccc2Cl)n1 (centres unmarked) [Ligand 1, PK11195] | – | – | – | – | 3.97
COc1cc(OC(C)C(=O)N(C)c2ccccc2)c2cccnc2n1 (centres unmarked) [Ligand 27, 2-(2-Methoxy-1,8-naphthyridin-4-yloxy)-N-methyl-N-phenylpropanamide] | 7.8 ± 0.6 | 6.09 ± 0.04 | – | – | –
O=[N+]([O-])c1ccccc1NCc1ccccn1 [Ligand 35, 2-Nitro-N-(pyridin-2-ylmethyl)aniline] | – | – | – | lacked any appreciable binding affinity | –
CC(On1c(-c2ccccn2)nc2ccccc21)C(=O)N(C)C(C)C (centres unmarked) [Ligand 36, N-Isopropyl-N-methyl-2-(2-(pyridin-2-yl)-1H-benzo[d]imidazol-1-yloxy)propanamide] | > 1000 | <2.47 | – | – | –

Further lines, with some results ahead:

Ki [2] [nM] | LipE [2] | logD [3] | binding affinity for TSPO (in words) [2] | SMILES | cLogD [1]
0.5 ± 0.1 | 6.5 ± 0.1 | 2.48 | – | CC(Oc1cc(-c2ccccn2)nc2ncccc12)C(=O)N(C)c1ccccc1 (centres unmarked) [Ligand 20, N-Methyl-N-phenyl-2-[2-(pyridin-2-yl)-1,8-naphthyridin-4-yloxy]propanamide] | –
0.53 ± 0.08 | 6.6 ± 0.1 | 2.48 | – | CC(Oc1cc(-c2ncccn2)nc2ccccc12)C(=O)N(C)c1ccccc1 (centres unmarked) [Ligand 21, N-Methyl-N-phenyl-2-[2-(pyrimidin-2-yl)quinolin-4-yl]oxypropanamide] | –
0.76 ± 0.09 | 6.58 ± 0.05 | – | – | CC(Oc1cc(-c2ccccn2)nc2ccccc12)C(=O)N(C)C(C)C (centres unmarked) [Ligand 22, N-Isopropyl-N-methyl-2-[2-(pyridin-2-yl)quinolin-4-yloxy]propanamide] | –
0.09 ± 0.01 | 5.80 ± 0.06 | – | – | CC(Oc1cc(-c2ccccn2)nc2ccccc12)C(=O)N(C)c1ccc(F)cc1 (centres unmarked) [Ligand 23, N-(4-Fluorophenyl)-N-methyl-2-[2-(pyridin-2-yl)quinolin-4-yloxy]propanamide] | –
0.22 ± 0.03 | 6.13 ± 0.07 | – | – | CC(Oc1cc(-n2cccc2)nc2ccccc12)C(=O)N(C)c1ccccc1 (centres unmarked) [Ligand 29, 2-[2-(1H-Pyrrol-1-yl)quinolin-4-yloxy]-N-methyl-N-phenylpropanamide] | –
> 1000 | <3.93 | – | – | CN1C(=O)C(Oc2cc(-c3ccccn3)nc3ccccc23)CC1(C)C (centres unmarked) [Ligand 33, 1,5,5-Trimethyl-3-[2-(pyridin-2-yl)quinolin-4-yloxy]pyrrolidin-2-one] | –
> 1000 | <3.36 | – | lacked any appreciable binding affinity | CC(C)N1CCC(Oc2cc(-c3ccccn3)nc3ccccc23)C1=O (centres unmarked) [Ligand 34, 1-Isopropyl-3-[2-(pyridin-2-yl)quinolin-4-yloxy]pyrrolidin-2-one] | –
